According to patent US9770026B2, “Substituted pyrimidine compound and uses thereof” (Shenyang Sinochem Agrochemicals R&D Co., Ltd., priority 2012, dated 2017):

Assays:
[1] = test system: rice blast; test: microbe, parasite or virus in culture; type: cell-based; conditions: for inhibition rate against rice blast: in vitro; for inhibition at 25 ppm / inhibition at 0.1 ppm / inhibition at 0.3 ppm / inhibition at 0.9 ppm / inhibition at 2.8 ppm / inhibition at 8.3 ppm: Pyricularia oryzae; for inhibition at 25 ppm: read-out: inhibition rate against rice blast, 25 ppm, in vitro; for inhibition at 0.1 ppm: read-out: inhibition rate against rice blast, 0.1 ppm, in vitro; for inhibition at 0.3 ppm: read-out: inhibition rate against rice blast, 0.3 ppm, in vitro; for inhibition at 0.9 ppm: read-out: inhibition rate against rice blast, 0.9 ppm, in vitro; for inhibition at 2.8 ppm: read-out: inhibition rate against rice blast, 2.8 ppm, in vitro; for inhibition at 8.3 ppm: read-out: inhibition rate against rice blast, 8.3 ppm, in vitro
[2] = test system: corn rust; test: protectant activity in vivo against corn rust; conditions: for pest or weed control at 100 ppm: read-out: protectant activity against corn rust in vivo, 100 ppm; for pest or weed control at 400 ppm: read-out: protectant activity against corn rust in vivo, 400 ppm; for pest or weed control at 6.25 ppm: read-out: protectant activity against corn rust in vivo, 6.25 ppm; for pest or weed control at 6.25 µg/mL: read-out: control effect against corn rust (%), 6.25 mg/L; for pest or weed control at 6.25 µg/mL / pest or weed control at 25 µg/mL / pest or weed control at 100 µg/mL / pest or weed control at 400 µg/mL: protectant activity; for pest or weed control at 25 µg/mL: read-out: control effect against corn rust (%), 25 mg/L; for pest or weed control at 100 µg/mL: read-out: control effect against corn rust (%), 100 mg/L; for pest or weed control at 400 µg/mL: read-out: control effect against corn rust (%), 400 mg/L
[3] = test system: Green peach aphids (Myzus Persicae Sulzer); test: bioactivity test against green peach aphid, airbrush foliar spray; type: in vivo; conditions: for pest or weed control at 600 ppm / pest or weed control at 10 ppm / pest or weed control at 100 ppm / control (test results against green peach aphid): death rate after 48 hrs
Summary of the method: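 Death rate was scored at 48 hrs, held at 25±1 C and 60±5% RH, following airbrush foliar spray (0.5 mL, 10 psi) onto cabbage leaf discs bearing about 15-30 aphids. Test solutions: compound dissolved in 1:1 acetone:methanol, brought to concentration with 0.1% tween 80 water.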

[4] = test system: carmine spider mite; test: bioactivity test against carmine spider mite, airbrush spray; type: in vivo
Summary of the method: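 Broadbean seedlings infested with adult mites were sprayed with compound (acetone/methanol stock diluted in 0.1% Tween 80 water) by airbrush at 0.7 kg/cm^2, 0.5 ml. Three replicates were run. Mortality was scored after 72 hrs.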

[5] = test system: wheat powdery mildew; test: protectant activity in vivo against wheat powdery mildew; conditions: for pest or weed control at 400 ppm: read-out: protectant activity against wheat powdery mildew in vivo, 400 ppm; for pest or weed control at 100 ppm: read-out: protectant activity against wheat powdery mildew in vivo, 100 ppm
[6] = test system: cucumber downy mildew; test: protectant activity in vivo against cucumber downy mildew; conditions: for pest or weed control at 400 ppm: read-out: protectant activity against cucumber downy mildew in vivo, 400 ppm; for pest or weed control at 50 ppm: read-out: protectant activity against cucumber downy mildew in vivo, 50 ppm; for pest or weed control at 100 ppm: read-out: protectant activity against cucumber downy mildew in vivo, 100 ppm
[7] = test system: armyworm; test: bioactivity test against armyworm, airbrush spray; type: in vivo; conditions: for pest or weed control at 600 µg/mL: 72 h, 600 mg/L, read-out: Insecticidal activity against armyworm (%)
[8] = test system: Diamond back moth; test: insecticidal activity against diamond back moth, airbrush spray; type: in vivo
Summary of the method: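 Airbrush leaf-disc spray test: both faces of 2 cm cabbage discs received 0.5 ml of test solution at 0.7 kg/cm^2. Solutions were made in acetone:methanol (1:1) and brought to concentration with 0.1% Tween 80 in water. Ten second-instar larvae per disc, triplicates, were held at 25° C and 60˜70% R.H., with mortality recorded at 72 hrs.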

[9] = Myzus persicae, foliar, 48 h, 600 ppm
[10] = Tetranychus cinnabarinus, 72 h, mortality after 72 hrs
[11] = Tetranychus cinnabarinus, 72 h, 600 ppm, mortality after 72 hrs
[12] = Myzus persicae, foliar, 48 h, 10 ppm
[13] = Myzus persicae, foliar, 48 h, 100 ppm
[14] = 600 ppm, mortality after 72 hrs

FC(F)(F)c1ccc(Oc2ccc(CCNc3ncnc(CCl)c3Cl)cc2)nc1 [Compound I-2922]
100%: inhibition rate against rice blast ([1]; 0.1 ppm) | inhibition rate against rice blast ([1]; 0.3 ppm) | inhibition rate against rice blast ([1]; 0.9 ppm) | inhibition rate against rice blast ([1]; 2.8 ppm) | inhibition rate against rice blast ([1]; 8.3 ppm) | protectant activity against corn rust in vivo ([2]; 100 ppm) | protectant activity against corn rust in vivo ([2]; 400 ppm)

CCc1nc(C)nc(NCCc2ccc(Oc3ncc(C(N)=O)cc3Cl)cc2)c1Cl [Compound I-6791]
80 to 99%: inhibition at 25 ppm [1] | pest or weed control at 100 ppm ([2]; Zea mays, 168 h)
100%: pest or weed control at 400 ppm ([2]; Zea mays, 168 h)

CCc1nc(C)nc(NCCc2ccc(Oc3ccc(C#N)cn3)cc2)c1Cl [Compound I-6795]
100%: pest or weed control at 400 ppm ([2]; Zea mays, 168 h) | pest or weed control at 600 ppm [3, 9] | pest or weed control at 100 ppm [4, 10] | pest or weed control at 600 ppm [4, 11] | pest or weed control at 400 ppm ([5]; Triticum aestivum, 168 h)
80 to 99%: inhibition at 25 ppm [1]

CCc1nc(C)nc(NCCc2ccc(Oc3ccc(C(=O)OC)cn3)cc2)c1Cl [Compound I-6797]
80 to 99%: inhibition at 25 ppm [1] | pest or weed control at 400 ppm ([6]; Cucumis sativus, 168 h) | pest or weed control at 10 ppm [3, 12] | pest or weed control at 400 ppm ([5]; Triticum aestivum, 168 h)
100%: pest or weed control at 100 ppm [3, 13] | pest or weed control at 600 ppm [3, 9] | pest or weed control at 100 ppm [4, 10] | pest or weed control at 600 ppm [4, 11]

Cc1cc(Cl)ccc1Oc1ccc(CCNc2ncnc(Cl)c2Cl)cn1 [III-2630]
100%: pest or weed control at 400 ppm ([2]; Zea mays, 168 h) | pest or weed control at 400 ppm ([6]; Cucumis sativus, 168 h)
80 to 99%: inhibition at 25 ppm [1] | pest or weed control at 50 ppm ([6]; Cucumis sativus, 168 h) | pest or weed control at 100 ppm ([6]; Cucumis sativus, 168 h)

CCOC(=O)c1ccc(Oc2ccc(CCNc3nc(C)nc(CC)c3Cl)cc2)nc1 [Compound I-6796]
100%: pest or weed control at 100 ppm ([2]; Zea mays, 168 h) | pest or weed control at 400 ppm ([2]; Zea mays, 168 h) | pest or weed control at 400 ppm ([6]; Cucumis sativus, 168 h) | pest or weed control at 10 ppm [3, 12] | pest or weed control at 100 ppm [3, 13] | pest or weed control at 600 ppm [3, 9] | pest or weed control at 400 ppm ([5]; Triticum aestivum, 168 h)
80 to 99%: inhibition at 25 ppm [1] | pest or weed control at 6.25 ppm ([2]; Zea mays, 168 h) | pest or weed control at 25 ppm ([2]; Zea mays, 168 h, read-out: protectant activity against corn rust in vivo, 25 ppm) | pest or weed control at 50 ppm ([6]; Cucumis sativus, 168 h) | pest or weed control at 100 ppm ([6]; Cucumis sativus, 168 h) | pest or weed control at 600 ppm [4, 11]

Cc1ncnc(NCCc2ccc(Oc3c(Cl)cc([N+](=O)[O-])cc3Cl)cc2)c1Cl [II-165]
80 to 99%: pest or weed control at 100 ppm ([2]; Zea mays, 168 h) | pest or weed control at 600 ppm [4, 11]
100%: inhibition at 0.1 ppm [1] | inhibition at 0.3 ppm [1] | inhibition at 0.9 ppm [1] | inhibition at 2.8 ppm [1] | inhibition at 8.3 ppm [1] | inhibition at 25 ppm [1] | pest or weed control at 400 ppm ([2]; Zea mays, 168 h)

CCc1nc(C)nc(NCCc2ccc(Oc3ncccc3C(F)(F)F)cc2)c1Cl [Compound I-6793]
80 to 99%: inhibition at 25 ppm [1] | pest or weed control at 400 ppm ([6]; Cucumis sativus, 168 h) | pest or weed control at 10 ppm [3, 12]
100%: pest or weed control at 400 ppm ([2]; Zea mays, 168 h) | pest or weed control at 100 ppm [3, 13] | pest or weed control at 600 ppm [3, 9] | pest or weed control at 25 ppm ([5]; Triticum aestivum, 168 h, read-out: protectant activity against wheat powdery mildew in vivo, 25 ppm) | pest or weed control at 100 ppm ([5]; Triticum aestivum, 168 h) | pest or weed control at 400 ppm ([5]; Triticum aestivum, 168 h)

Cc1c(Cl)c(NCCc2ccc(Oc3ccc(C(F)(F)F)cn3)cc2)nc[n+]1CC(=O)c1ccc(Cl)cc1 [CK49, reference compound]
17%: pest or weed control at 600 µg/mL [7]
< 50%: inhibition at 25 ppm [1]
0%: inhibition at 8.3 ppm [1] | pest or weed control at 6.25 µg/mL ([2]; Zea mays, 168 h) | pest or weed control at 25 µg/mL ([2]; Zea mays, 168 h)
30%: pest or weed control at 100 µg/mL ([2]; Zea mays, 168 h)
85%: pest or weed control at 400 µg/mL ([2]; Zea mays, 168 h)

CCc1c(Cl)c(NCCc2ccc(Oc3ccc(C(F)(F)F)cc3)cc2)nc[n+]1CC(=O)c1ccc(Cl)cc1 [CK50, reference compound]
0%: inhibition at 8.3 ppm [1] | pest or weed control at 6.25 µg/mL ([2]; Zea mays, 168 h) | pest or weed control at 25 µg/mL ([2]; Zea mays, 168 h) | pest or weed control at 100 µg/mL ([2]; Zea mays, 168 h)
< 50%: inhibition at 25 ppm [1]
80%: pest or weed control at 400 µg/mL ([2]; Zea mays, 168 h)

FC(F)c1ncnc(NCCc2ccc(Oc3ccc(C(F)(F)F)cc3Cl)nc2)c1Cl [III-661]
100%: inhibition rate against rice blast ([1]; 8.3 ppm) | protectant activity against corn rust in vivo ([2]; 100 ppm) | protectant activity against corn rust in vivo ([2]; 400 ppm) | control (test results against green peach aphid) ([3]; 100 ppm) | control (test results against green peach aphid) ([3]; 600 ppm)

Cc1ncnc(NCCc2ccc(Oc3ncc(C(F)(F)Cl)cc3Cl)cc2)c1Cl [Compound I-483]
80 to 99%: pest or weed control at 100 ppm [4, 10] | pest or weed control at 100 ppm ([5]; Triticum aestivum, 168 h) | pest or weed control at 400 ppm ([5]; Triticum aestivum, 168 h)
100%: inhibition at 0.1 ppm [1] | inhibition at 0.3 ppm [1] | inhibition at 0.9 ppm [1] | inhibition at 2.8 ppm [1] | inhibition at 8.3 ppm [1] | inhibition at 25 ppm [1] | pest or weed control at 400 ppm ([2]; Zea mays, 168 h) | pest or weed control at 400 ppm ([6]; Cucumis sativus, 168 h) | pest or weed control at 100 ppm [3, 13] | pest or weed control at 600 ppm [3, 9] | pest or weed control at 600 ppm [4, 11]

CCc1ncnc(NCc2ccc(Oc3c(Cl)cc([N+](=O)[O-])cc3Cl)cc2)c1Cl [CK66, reference compound]
0%: pest or weed control at 400 µg/mL ([2]; Zea mays, 168 h) | pest or weed control at 600 µg/mL [7] | pest or weed control at 400 µg/mL ([6]; Cucumis sativus, 168 h, read-out: control effect against cucumber downy mildew (%), 400 mg/L, protectant activity) | pest or weed control at 600 µg/mL ([8]; 72 h, 600 mg/L) | pest or weed control at 600 µg/mL ([3]; Myzus persicae, foliar, 48 h, 600 mg/L, contrastive test, read-out: Insecticidal activity against peach aphid (%)) | pest or weed control at 600 µg/mL ([4]; Tetranychus cinnabarinus, 72 h, 600 mg/L, contrastive test, read-out: Insecticidal activity against carmine spider mite (% )) | pest or weed control at 400 µg/mL ([5]; Triticum aestivum, 168 h, read-out: control effect against wheat powdery mildew (%), 400 mg/L, protectant activity)

Cc1ncnc(NCCc2ccc(Oc3ccc(C(F)(F)F)cn3)cc2)c1Cl [Compound I-6732]
80 to 99%: pest or weed control at 6.25 ppm ([2]; Zea mays, 168 h)
100%: protectant activity against corn rust in vivo ([2]; 100 ppm) | protectant activity against corn rust in vivo ([2]; 400 ppm) | control (test results against armyworm) ([7]; 600 ppm, mortality after 72 h) | protectant activity against cucumber downy mildew in vivo ([6]; 25 ppm) | protectant activity against cucumber downy mildew in vivo ([6]; 100 ppm) | protectant activity against cucumber downy mildew in vivo ([6]; 400 ppm) | control (test results against diamond back moth) [8, 14] | control (test results against green peach aphid) ([3]; 10 ppm) | control (test results against green peach aphid) ([3]; 100 ppm) | control (test results against green peach aphid) ([3]; 600 ppm) | control against carmine spider mite [4, 14] | pest or weed control at 100 ppm [4, 10] | protectant activity against wheat powdery mildew in vivo ([5]; 400 ppm)
